We go through seven compounds from patent US20110207820A1, “NOVEL CHRYSOCHROMULINA SPECIES, METHODS AND MEDIA THEREFOR, AND PRODUCTS DERIVED THEREFROM” (UNIVERSITY OF WASHINGTON, priority 2008, published 2011).

Where two headings read alike, the source gives them in different places. Bounds are passed on as bounds.

Data set [1] deals with Alga X. How it is done:
The mother culture is generally about one week old and has a culture density of about 2×10̂6.
Two experiments were run using 0, 8, 16, 32, and 64 mM NaCl salt concentrations in the Alga X culture medium. Alga cells were collected for lipid analysis at 0, 3, 6, and 9 days for each salt concentration.
The starting culture densities were 5.00E+03 cells/ml.
The starting culture densities were 1.00E+05 cells/ml.
Alga X cell cultures were subjected to agitation between 0 and 100 rpm.
A volume of about 37.6 ml of original stock was added to each starting flask, with the balance being medium to bring the cell cultures to a concentration of about 1.00E+06.
The original stock culture was maintained in CORE1 (distilled water based medium), plus SEM, with a concentration of about 3.19E+06 cells/ml. Volumes of 34.5 ml of original stock were added to each starting flask, with the balance being medium to bring the cell cultures to a concentration of about 1.00E+05.
The experimental AMPSO culture was maintained in a medium of Clear (human waste water), SEM, and 8 mM AMPSO pH buffer. The AMPSO plus NaHCO3 culture was maintained in a medium of Clear (human waste water), SEM, 8 mM AMPSO pH buffer, and 2 mM NaHCO3.

The subject of data set [2] is lipid bodies in algal cells. As to the kind of experiment: BODIPY 505/515 vital staining of lipid bodies in live algal cells (fluorescence microscopy, cell sorter). Type of data set: cell-based, Alga X. The source says: When added to a culture of algal cells, 1-10 micro-liters of BODIPY 505/515 stains intracellular lipid bodies within minutes. (Preparation of a BODIPY 505/515 stock solution is described below in EXAMPLE 30.) BODIPY 505/515 accumulates in lipidic compartments by a diffusion-trap mechanism. The dye has a high oil/water partition coefficient, which allows it to cross cell membranes and organelle membranes easily. When viewed under a fluorescent microscope, the background fluorescence of BODIPY 505/515 in the bath solution is slightly visible. Despite the slight background fluorescence, lipid bodies within live algal cells are intensely labeled and can be easily seen using fluorescein-type optics or confocal microscopy (see FIG. 8). […] This fluorescence arises from endogenous carotenoid and chlorophyll molecules located within the chloroplasts.
Fluorescently labeled cells with large lipid bodies can be isolated using the fluorescent cell sorter and used to successfully seed new algal cultures. Fluorescently labeled cells have a signal/noise ratio of 50-200 above background fluorescence, depending on the BODIPY 505/515 dye concentration used. […] BODIPY 505/515 can be used to characterize the diurnal rhythm of lipid body size within algal cells or decline in lipid quantity per cell as a culture moves from one life history phase to another. […]

In data set [3] the test system is Single-cell and filamentous species of algae. As to the kind of experiment: Algal growth in the continuous presence of the dye. The settings on record: micromolar concentrations, for days (data not shown). The data set is classed as cell-based.
Data set [4] has as its system Alga X. As to the kind of experiment: Fatty acid content and fatty acid profile of Alga X cells grown in test media (GC/MS, FAME ionization detection). The data set is classed as cell-based, Chrysochromulina sp.

`O=P(O)(O)OC(CO)CO` [BGlycerolphosphate, beta-glycerophosphate]: the cells/mL in the data set with Alga X [1] (B-glycerolphosphate 6.45 uM (control amount), day 2) came out at 6.98E+05 cells/mL; in the data set on Alga X [1] (B-glycerolphosphate 6.45 uM (control amount), day 3) it was 1.57E+06 cells/mL; with Alga X [1] (B-glycerolphosphate 6.45 uM (control amount), day 4) it was 2.75E+06 cells/mL; in the data set with Alga X [1] (B-glycerolphosphate 6.45 uM (control amount), day 6), 3.54E+06 cells/mL; with Alga X [1] (B-glycerolphosphate 6.45 uM (control amount), day 8), 4.10E+06 cells/mL; with Alga X [1] (B-glycerolphosphate 6.45 uM (control amount), day 9), 4.53E+06 cells/mL.
`CC1=CC(C)=[N+]2C1=Cc1c(C)cc(C)n1[B-]2(F)F` [BODIPY 505/515, 4,4-difluoro-1,3,5,7-tetramethyl-4-bora-3a,4a-diaza-s-indacene]: the “time after dye addition until fluorescently-labeled lipid bodies are visible” value in data set [2] (1 micro-molar BODIPY 505/515, 0.05% DMSO) was not above 5 min. In addition, the “signal/noise ratio of labeled cells above background fluorescence” value in data set [2] (depending on dye concentration) is recorded as 50-200. Also, the “growth of algae in continuous presence of the dye” value in data set [3] is “continue to grow well”.
As to `O=P([O-])(O)O.[K+]` [KH2PO4], the fatty acid productivity entry in the data set with Alga X [4] (increasing KH2PO4, by day 6) is reported as “increases slightly”.
Take `[Cl-].[Na+]` [NaCl]: in the data set with Alga X [1], the “level of NaCl at which Alga X exhibits maximum growth” value amounted to 8.0 mM and the “survival of Alga X cells” value was “did not survive”. The cell growth result in the data set with Alga X [1] (32 mM salt content) is “depressed”.
On to `CC(=O)O` [acetate], for which the cells/mL amounted to 1.0E+05 cells/mL in the data set on Alga X [1] (acetate 100 uM, day 0); 1.54E+06 cells/mL in the data set with Alga X [1] (acetate 100 uM, day 3); 3.27E+06 cells/mL in the data set on Alga X [1] (acetate 100 uM, day 6); 4.87E+06 cells/mL in the data set on Alga X [1] (acetate 100 uM, day 9); 1.0E+05 cells/mL with Alga X [1] (acetate 200 uM, day 0); 1.69E+06 cells/mL in the data set with Alga X [1] (acetate 200 uM, day 3). The cells/mL with Alga X [1] (acetate 200 uM, day 6) was 4.02E+06 cells/mL; with Alga X [1] (acetate 200 uM, day 9) it was 5.02E+06 cells/mL; with Alga X [1] (acetate 400 uM, day 0), 1.0E+05 cells/mL; with Alga X [1] (acetate 400 uM, day 3) it was 1.67E+06 cells/mL; with Alga X [1] (acetate 400 uM, day 6) it was 4.44E+06 cells/mL; with Alga X [1] (acetate 400 uM, day 9), 4.70E+06 cells/mL.
Take `O=C([O-])O.[Na+]` [sodium bicarbonate]: in the data set on Alga X [1] (2 mM, 4 mM or 6 mM, with AMPSO pH buffer), the cell culture growth result was “further enhances cell culture growth”.
Consider nitrogen, for which, in the data set on Alga X [4] (increased nitrogen in the media), the lipid per cell result is listed as “little affected”.
